Values quoted from earlier work as cited in patent US10561746B2, “Gel formulations for guiding radiotherapy” (DANMARKS TEKNISKE UNIVERSITET, priority 2013, dated 2020).

- concentration at which self-assembled hydrogels form (in the presence of mM concentrations of NaCl, KCl, and CaCl2): > 10000 µg/mL
- solubility in pure H2O (pure H2O): highly soluble
Substance: H-(FEFEFKFK)2-OH [FEK16]
